# Source: PubChem BioAssay (NCI)
#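 Interpolation was linear, between the two tested concentrations surrounding the appropriate level; five concentrations were tested over 48 hours in 96-well plates. The concentration for full growth arrest is given as TGI.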
# Tests used:
# Test in all cases: growth of human tumour cells (NCI), 48 h
# DU-145 prostate = tested on: DU-145 prostate
# PC-3 prostate = tested on: PC-3 prostate
# ACHN renal = tested on: ACHN renal
# LOX IMVI melanoma = tested on: LOX IMVI melanoma
# COLO 205 colon = tested on: COLO 205 colon
# NCI/ADR-RES ovarian = tested on: NCI/ADR-RES ovarian
# CAKI-1 renal = tested on: CAKI-1 renal
# 786-0 renal = tested on: 786-0 renal
# SW-620 colon = tested on: SW-620 colon
# M14 melanoma = tested on: M14 melanoma
# U251 CNS = tested on: U251 CNS
# SK-OV-3 ovarian = tested on: SK-OV-3 ovarian
# UO-31 renal = tested on: UO-31 renal
# OVCAR-4 ovarian = tested on: OVCAR-4 ovarian
# MOLT-4 leukemia = tested on: MOLT-4 leukemia
# SF-268 CNS = tested on: SF-268 CNS
# SF-539 CNS = tested on: SF-539 CNS
# NCI-H23 lung = tested on: NCI-H23 lung
# MCF7 breast = tested on: MCF7 breast
# CCRF-CEM leukemia = tested on: CCRF-CEM leukemia
# OVCAR-8 ovarian = tested on: OVCAR-8 ovarian
# NCI-H226 lung = tested on: NCI-H226 lung
# MDA-N = tested on: MDA-N
# UACC-257 melanoma = tested on: UACC-257 melanoma
# SK-MEL-2 melanoma = tested on: SK-MEL-2 melanoma
# HCT-116 colon = tested on: HCT-116 colon
# IGROV1 ovarian = tested on: IGROV1 ovarian
# MDA-MB-231 breast = tested on: MDA-MB-231 breast
# OVCAR-3 ovarian = tested on: OVCAR-3 ovarian
# SNB-19 CNS = tested on: SNB-19 CNS
# SR leukemia = tested on: SR leukemia
# MALME-3M melanoma = tested on: MALME-3M melanoma
# UACC-62 melanoma = tested on: UACC-62 melanoma
# HT29 colon = tested on: HT29 colon
# KM12 colon = tested on: KM12 colon
# NCI-H522 lung = tested on: NCI-H522 lung
# HS 578T breast = tested on: HS 578T breast
# A549 NSCLC = tested on: A549 NSCLC
# OVCAR-5 ovarian = tested on: OVCAR-5 ovarian
# SK-MEL-5 melanoma = tested on: SK-MEL-5 melanoma
# EKVX NSCLC = tested on: EKVX NSCLC
# BT-549 breast = tested on: BT-549 breast
# HOP-92 NSCLC = tested on: HOP-92 NSCLC
# K-562 leukemia = tested on: K-562 leukemia
# SNB-75 CNS = tested on: SNB-75 CNS
# HCT-15 colon = tested on: HCT-15 colon
# SK-MEL-28 melanoma = tested on: SK-MEL-28 melanoma
# MDA-MB-435 = tested on: MDA-MB-435
# HL-60(TB) leukemia = tested on: HL-60(TB) leukemia
# A498 renal = tested on: A498 renal
# RPMI-8226 leukemia = tested on: RPMI-8226 leukemia
# TK-10 renal = tested on: TK-10 renal
# RXF 393 renal = tested on: RXF 393 renal
# NCI-H460 lung = tested on: NCI-H460 lung
# HCC-2998 colon = tested on: HCC-2998 colon
# SF-295 CNS = tested on: SF-295 CNS
# HOP-62 NSCLC = tested on: HOP-62 NSCLC
# SN12C renal = tested on: SN12C renal
smiles,measurement,setting,value
CC(=O)/C=c1\[nH]/c(=C\C=C\c2ccccc2)c(=O)n1/C=C1\C(=O)Oc2ccccc2C1=O,TGI,DU-145 prostate,> 100 µM
same,TGI,PC-3 prostate,> 100 µM
same,TGI,ACHN renal,> 100 µM
same,TGI,LOX IMVI melanoma,> 100 µM
same,TGI,COLO 205 colon,> 100 µM
same,TGI,NCI/ADR-RES ovarian,> 100 µM
same,TGI,CAKI-1 renal,> 100 µM
same,TGI,786-0 renal,> 100 µM
same,TGI,SW-620 colon,> 100 µM
same,TGI,M14 melanoma,> 100 µM
same,TGI,U251 CNS,> 100 µM
same,TGI,SK-OV-3 ovarian,> 100 µM
same,TGI,UO-31 renal,> 100 µM
same,TGI,OVCAR-4 ovarian,> 100 µM
same,TGI,MOLT-4 leukemia,> 100 µM
same,TGI,SF-268 CNS,> 100 µM
same,TGI,SF-539 CNS,> 100 µM
same,TGI,NCI-H23 lung,> 100 µM
same,TGI,MCF7 breast,> 100 µM
same,TGI,CCRF-CEM leukemia,> 100 µM
same,TGI,OVCAR-8 ovarian,> 100 µM
same,TGI,NCI-H226 lung,> 100 µM
same,TGI,MDA-N,> 100 µM
same,TGI,UACC-257 melanoma,> 100 µM
same,TGI,SK-MEL-2 melanoma,> 100 µM
same,TGI,HCT-116 colon,> 100 µM
same,TGI,IGROV1 ovarian,> 100 µM
same,TGI,MDA-MB-231 breast,> 100 µM
same,TGI,OVCAR-3 ovarian,> 100 µM
same,TGI,SNB-19 CNS,> 100 µM
same,TGI,SR leukemia,> 100 µM
same,TGI,MALME-3M melanoma,> 100 µM
same,TGI,UACC-62 melanoma,> 100 µM
same,TGI,HT29 colon,> 100 µM
same,TGI,KM12 colon,> 100 µM
same,TGI,NCI-H522 lung,> 100 µM
same,TGI,HS 578T breast,> 100 µM
same,TGI,A549 NSCLC,> 100 µM
same,TGI,OVCAR-5 ovarian,> 100 µM
same,TGI,SK-MEL-5 melanoma,> 100 µM
same,TGI,EKVX NSCLC,> 100 µM
same,TGI,BT-549 breast,> 100 µM
same,TGI,HOP-92 NSCLC,> 100 µM
same,TGI,K-562 leukemia,> 100 µM
same,TGI,SNB-75 CNS,> 100 µM
same,TGI,HCT-15 colon,> 100 µM
same,TGI,SK-MEL-28 melanoma,> 100 µM
same,TGI,MDA-MB-435,> 100 µM
same,TGI,HL-60(TB) leukemia,> 100 µM
same,TGI,A498 renal,> 100 µM
same,TGI,RPMI-8226 leukemia,> 100 µM
same,TGI,TK-10 renal,> 100 µM
CCCCCCN1CCc2c(C)c(C#N)c3nc4ccccc4n3c21,TGI,DU-145 prostate,> 100 µM
same,TGI,PC-3 prostate,> 100 µM
same,TGI,ACHN renal,> 100 µM
same,TGI,LOX IMVI melanoma,> 100 µM
same,TGI,COLO 205 colon,> 100 µM
same,TGI,RXF 393 renal,> 100 µM
same,TGI,NCI/ADR-RES ovarian,> 100 µM
same,TGI,786-0 renal,> 100 µM
same,TGI,SW-620 colon,> 100 µM
same,TGI,M14 melanoma,> 100 µM
same,TGI,U251 CNS,> 100 µM
same,TGI,SK-OV-3 ovarian,> 100 µM
same,TGI,UO-31 renal,> 100 µM
same,TGI,OVCAR-4 ovarian,> 100 µM
same,TGI,SF-268 CNS,> 100 µM
same,TGI,SF-539 CNS,> 100 µM
same,TGI,NCI-H23 lung,> 100 µM
same,TGI,MCF7 breast,41.5 µM
same,TGI,OVCAR-8 ovarian,> 100 µM
same,TGI,NCI-H226 lung,> 100 µM
same,TGI,MDA-N,> 100 µM
same,TGI,UACC-257 melanoma,> 100 µM
same,TGI,SK-MEL-2 melanoma,> 100 µM
same,TGI,HCT-116 colon,> 100 µM
same,TGI,IGROV1 ovarian,> 100 µM
same,TGI,MDA-MB-231 breast,> 100 µM
same,TGI,OVCAR-3 ovarian,> 100 µM
same,TGI,NCI-H460 lung,> 100 µM
same,TGI,SNB-19 CNS,> 100 µM
same,TGI,SR leukemia,> 100 µM
same,TGI,MALME-3M melanoma,> 100 µM
same,TGI,UACC-62 melanoma,> 100 µM
same,TGI,HCC-2998 colon,> 100 µM
same,TGI,HT29 colon,> 100 µM
same,TGI,SF-295 CNS,> 100 µM
same,TGI,NCI-H522 lung,> 100 µM
same,TGI,HS 578T breast,75.6 µM
same,TGI,A549 NSCLC,> 100 µM
same,TGI,OVCAR-5 ovarian,> 100 µM
same,TGI,SK-MEL-5 melanoma,> 100 µM
same,TGI,HOP-62 NSCLC,> 100 µM
same,TGI,BT-549 breast,> 100 µM
same,TGI,HOP-92 NSCLC,> 100 µM
same,TGI,K-562 leukemia,> 100 µM
same,TGI,SN12C renal,> 100 µM
same,TGI,SNB-75 CNS,> 100 µM
same,TGI,HCT-15 colon,> 100 µM
same,TGI,SK-MEL-28 melanoma,> 100 µM
same,TGI,MDA-MB-435,93.8 µM
same,TGI,HL-60(TB) leukemia,> 100 µM
same,TGI,A498 renal,> 100 µM
same,TGI,TK-10 renal,> 100 µM
